From ChEMBL document CHEMBL5338791, “Discovery of Novel 1,3-Diphenylpyrazine Derivatives as Potent S-Phase Kinase-Associated Protein 2 (Skp2) Inhibitors for the Treatment of Cancer” (J Med Chem, 2023)
pIC50: −log10 of the molar value. Activity calls are given as the source filed them. No cut-off for these calls is given here.

Experiments:
PC-3 [1] = assay: Upregulation of p27 level in human PC-3 cells upto 10 uM by Western blot analysis; assay type: functional, cell-based; settings: time 48.0 hrs, TDE = time-dependent effect
MGC-803 [2] = assay: Induction of cell cycle arrest in human MGC-803 cells assessed as accumulation of cells at G1 phase at 2.5 uM incubated for 48 hrs by flow cytometry (reference value: 54.46 %); assay type: functional
[3] = molecular target: S-phase kinase-associated protein 2/Cyclin-dependent kinases regulatory subunit 1/S-phase kinase-associated protein 1 (Homo sapiens, UniProt Q13309); assay: Inhibition of GST-tagged Skp2/Skp1 (unknown origin)/His6-tagged Cks1 (unknown origin) interaction preincubated with Skp2/Skp1 for 10 mins followed by Cks1 addition measured after 20 mins by HTRF assay; assay type: protein assay
Sequence of S-phase kinase-associated protein 2/Cyclin-dependent kinases regulatory subunit 1/S-phase kinase-associated protein 1 (P61024 whole entry): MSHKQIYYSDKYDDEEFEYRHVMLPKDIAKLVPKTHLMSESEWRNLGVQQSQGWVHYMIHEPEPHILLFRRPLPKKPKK
Sequence of S-phase kinase-associated protein 2/Cyclin-dependent kinases regulatory subunit 1/S-phase kinase-associated protein 1 (Q13309 whole entry): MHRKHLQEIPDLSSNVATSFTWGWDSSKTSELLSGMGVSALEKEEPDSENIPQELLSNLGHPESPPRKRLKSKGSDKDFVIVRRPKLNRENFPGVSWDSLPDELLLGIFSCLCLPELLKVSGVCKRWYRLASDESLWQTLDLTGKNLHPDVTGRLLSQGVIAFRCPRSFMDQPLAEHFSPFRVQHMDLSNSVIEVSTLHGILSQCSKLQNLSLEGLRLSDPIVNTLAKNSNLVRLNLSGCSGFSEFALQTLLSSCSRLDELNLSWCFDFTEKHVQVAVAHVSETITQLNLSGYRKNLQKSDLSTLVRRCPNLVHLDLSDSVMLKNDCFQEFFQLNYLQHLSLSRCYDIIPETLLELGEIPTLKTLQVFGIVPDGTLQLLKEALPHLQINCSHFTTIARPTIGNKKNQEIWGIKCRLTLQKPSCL
Sequence of S-phase kinase-associated protein 2/Cyclin-dependent kinases regulatory subunit 1/S-phase kinase-associated protein 1 (P63208 whole entry, further chain): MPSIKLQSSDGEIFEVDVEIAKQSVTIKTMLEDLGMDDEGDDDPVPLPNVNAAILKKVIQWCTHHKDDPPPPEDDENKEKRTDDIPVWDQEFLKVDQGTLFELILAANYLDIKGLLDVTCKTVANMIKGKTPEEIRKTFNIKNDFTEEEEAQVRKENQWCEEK

NCI-H1299 = assay: Antitumor activity against human NCI-H1299 cells overexpressing Skp2 assessed as cell growth inhibition incubated for 72 hrs by MTT assay; assay type: functional, cell-based; settings: NCI-H1299, 72 h
MGC-803 [4] = assay: Antitumor activity against human MGC-803 cells overexpressing Skp2 assessed as cell growth inhibition incubated for 72 hrs by MTT assay; assay type: functional, cell-based; settings: MGC-803, 72 h
ES-2 = assay: Antitumor activity against human ES2 cells overexpressing Skp2 assessed as cell growth inhibition incubated for 72 hrs by MTT assay; assay type: functional, cell-based; settings: ES-2, 72 h
MGC-803 [5] = assay: Upregulation of p27 level in human MGC-803 cells upto 10 uM by Western blot analysis; assay type: functional, cell-based; settings: time 48.0 hrs, TDE = time-dependent effect
MGC-803 [6] = assay: Upregulation of p27 level in human MGC-803 cells at 10 uM incubated upto 48 hrs by Western blot analysis; assay type: functional, cell-based
PC-3 [7] = assay: Inhibition of cell migration in human PC-3 cells incubated for 48 hrs by wound healing assay; assay type: functional, cell-based; settings: dose <= 2.0 µM
MGC-803 [8] = assay: Inhibition of cell migration in human MGC-803 cells by transwell invasion assay; assay type: functional, cell-based; settings: dose <= 2.0 µM
PC-3 [9] = assay: Induction of cell cycle arrest in human PC-3 cells assessed as accumulation of cells at S phase at 2.5 uM incubated for 48 hrs by flow cytometry (reference value: 22.44 %); assay type: functional
PC-3 [10] = assay: Induction of cell cycle arrest in human PC-3 cells assessed as accumulation of cells at S phase at 5 uM incubated for 48 hrs by flow cytometry (reference value: 22.44 %); assay type: functional
PC-3 [11] = assay: Induction of cell cycle arrest in human PC-3 cells assessed as accumulation of cells at G2 phase at 5 uM incubated for 48 hrs by flow cytometry (reference value: 22.59 %); assay type: functional
PC-3 [12] = assay: Induction of cell cycle arrest in human PC-3 cells assessed as accumulation of cells at S phase at 10 uM incubated for 48 hrs by flow cytometry (reference value: 22.44 %); assay type: functional
PC-3 [13] = assay: Induction of cell cycle arrest in human PC-3 cells assessed as accumulation of cells at S phase at 10 uM incubated for 24 hrs by flow cytometry (reference value: 19.7 %); assay type: functional
PC-3 [14] = assay: Induction of cell cycle arrest in human PC-3 cells assessed as accumulation of cells at S phase at 10 uM incubated for 48 hrs by flow cytometry (reference value: 19.7 %); assay type: functional
MGC-803 [15] = assay: Induction of cell cycle arrest in human MGC-803 cells assessed as accumulation of cells at S phase at 10 uM incubated for 24 hrs by flow cytometry (reference value: 20.41 %); assay type: functional
MGC-803 [16] = assay: Induction of cell cycle arrest in human MGC-803 cells assessed as accumulation of cells at G1 phase at 10 uM incubated for 36 hrs by flow cytometry (reference value: 57.09 %); assay type: functional
MGC-803 [17] = assay: Induction of cell cycle arrest in human MGC-803 cells assessed as accumulation of cells at G1 phase at 10 uM incubated for 48 hrs by flow cytometry (reference value: 57.09 %); assay type: functional
MGC-803 [18] = assay: Induction of cell cycle arrest in human MGC-803 cells assessed as accumulation of cells at S phase at 10 uM incubated for 48 hrs by flow cytometry (reference value: 20.41 %); assay type: functional
PC-3 [19] = assay: Induction of apoptosis in human PC-3 cells assessed as viable cells at 2.5 uM incubated for 48 hrs by annexin V-FITC/PI staining based flow cytometry (reference value: 98.6 %); assay type: functional; settings: read-out: Activity
PC-3 [20] = assay: Induction of apoptosis in human PC-3 cells assessed as early apoptotic cells at 2.5 uM incubated for 48 hrs by annexin V-FITC/PI staining based flow cytometry (reference value: 0.85 %); assay type: functional
MGC-803 [21] = assay: Induction of apoptosis in human MGC-803 cells assessed as viable cells at 5 uM incubated for 48 hrs by annexin V-FITC/PI staining based flow cytometry (reference value: 98 %); assay type: functional; settings: read-out: Activity
MGC-803 [22] = assay: Induction of apoptosis in human MGC-803 cells assessed as viable cells at 10 uM incubated for 48 hrs by annexin V-FITC/PI staining based flow cytometry (reference value: 98 %); assay type: functional; settings: read-out: Activity
PC-3 [23] = assay: Antitumor activity against human PC-3 cells xenografted in NOD-SCID mouse model assessed as tumor growth inhibition at 10 mg/kg, IG administered once every 2 days for 21 days relative to control; assay type: functional; settings: PC-3, po, 504 h, time 21 day, read-out: TGI
PC-3 [24] = assay: Antitumor activity against human PC-3 cells xenografted in NOD-SCID mouse model assessed as tumor suppression at 50 mg/kg, IG administered once every 2 days for 21 days relative to control; assay type: functional; settings: time 21 day
[25] = Toxicity in NOD-SCID mouse model xenografted with human PC-3 cells assessed as body weight change at 10 to 50 mg/kg, IG administered once every 2 days for 21 days; assay type: organism-based; settings: in vivo, po, 504 h, dose 10-50 mg/kg, time 21 day
[26] = Toxicity in NOD-SCID mouse model xenografted with human MGC-803 cells assessed as drug tolerance at 10 to 50 mg/kg, IG administered once every 2 days for 21 days; assay type: organism-based; settings: in vivo, po, 504 h, dose 10-50 mg/kg, time 21 day
[27] = Toxicity in NOD-SCID mouse model xenografted with human MGC-803 cells assessed as change in liver histology at 10 to 50 mg/kg, IG administered once every 2 days for 21 days by H and E staining based analysis; assay type: organism-based; settings: in vivo, po, 504 h, dose 10-50 mg/kg, time 21 day
[28] = Toxicity in NOD-SCID mouse model xenografted with human MGC-803 cells assessed as change in spleen histology at 10 to 50 mg/kg, IG administered once every 2 days for 21 days by H and E staining based analysis; assay type: organism-based; settings: in vivo, po, 504 h, dose 10-50 mg/kg, time 21 day
[29] = Metabolic stability in human liver microsome assessed as half life at 20 umol/L preincubated for 5 mins followed by NADPH addition measured upto 60 mins by LC-MS/MS analysis; assay type: ADME; settings: liver microsomes, dose 20 µmol/L, time < 65 min
[30] = Metabolic stability in mouse liver microsome assessed as half life at 20 umol/L preincubated for 5 mins followed by NADPH addition measured upto 60 mins by LC-MS/MS analysis; assay type: ADME; settings: liver microsomes, dose 20 µmol/L, time < 65 min
[31] = Biodistribution in tumor of NOD-SCID mouse model xenografted with human PC-3 cells at 25 mg/kg, IG measured for 48 hrs by LC-MS/MS analysis; assay type: ADME, organism-based, Neoplasm; settings: in vivo, po
[32] = MRTlast in plasma of NOD-SCID mouse model xenografted with human PC-3 cells at 25 mg/kg, IG measured upto 48 hrs by LC-MS/MS analysis; assay type: ADME, organism-based; settings: po

pIC50 [3]: 5.55
pIC50 (NCI-H1299): 5.44
pIC50 (MGC-803 [4]): 5.15
half-life at 20 µM [29]: 1.1 h
half-life at 20 µM [30]: 0.255 h
Drug uptake [31]: Active
MRT last at 48 h [32]: 13.4 h
Structure (SMILES): O=C(CCl)NC1CCN(c2cnc(-c3ccccc3)c(-c3ccccc3)n2)CC1
Activity (PC-3 [1]): Tde
Activity (MGC-803 [2]): 49.77%
pIC50 (ES-2): 5.44
Activity (MGC-803 [5]): Tde
Activity (MGC-803 [6]): Active
inhibition (PC-3 [7]): Dose-Dependent Effect
inhibition (MGC-803 [8]): Dose-Dependent Effect
Activity (PC-3 [9]): 29.96%
Activity (PC-3 [10]): 38.7%
Activity (PC-3 [11]): 16.41%
Activity (PC-3 [12]): 43.58%
Activity (PC-3 [13]): 38.52%
Activity (PC-3 [14]): 44.19%
Activity (MGC-803 [15]): 35.4%
Activity (MGC-803 [16]): 35.48%
Activity (MGC-803 [17]): 35.53%
Activity (MGC-803 [18]): 38.76%
viability at 2.5 µM (PC-3 [19]): 92.2%
Activity (PC-3 [20]): 0.96%
viability at 5 µM (MGC-803 [21]): 82.9%
viability at 10 µM (MGC-803 [22]): 66.9%
inhibition in vivo at 10 mg/kg (PC-3 [23]): 55.7%
Activity (PC-3 [24]): 100%
Activity [25]: Non-Toxic
Activity [26]: Non-Toxic
Activity [27]: Non-Toxic
Activity [28]: Non-Toxic
